In ChEMBL document CHEMBL3044799, “Biological activity of the succinate dehydrogenase inhibitor fluopyram against Botrytis cinerea and fungal baseline sensitivity” (Pest Manag Sci, 2012):
Values after ≈ are worked out from the molar mass of the structure shown.

Legend:
Botrytis cinerea [1] = assay: Antifungal activity against Botryotinia fuckeliana inoculated in strawberry fruit; format: functional, organism-based
Botrytis cinerea [2] = assay: Curative antifungal activity against Botryotinia fuckeliana inoculated in strawberry fruit assessed as disease control efficacy at 300 ug AI/ml applied 24 hr post-inoculation relative to control; format: functional
Botrytis cinerea [3] = assay: Protective antifungal activity against Botryotinia fuckeliana inoculated in fungicide-applied strawberry fruit assessed as disease severity measuring lesion diameter at 300 ug AI/ml applied 96 hr prior-inoculation; format: functional
Botrytis cinerea [4] = assay: Curative antifungal activity against Botryotinia fuckeliana inoculated in strawberry fruit assessed as disease control efficacy at 300 ug AI/ml applied 96 hr post-inoculation relative to control; format: functional
Botrytis cinerea [5] = assay: Curative antifungal activity against Botryotinia fuckeliana inoculated in strawberry fruit assessed as disease control efficacy at 300 ug AI/ml applied 48 hr post-inoculation relative to control; format: functional
Botrytis cinerea [6] = assay: Curative antifungal activity against Botryotinia fuckeliana inoculated in strawberry fruit assessed as disease severity measuring lesion diameter at 300 ug AI/ml applied 96 hr post-inoculation; format: functional
Botrytis cinerea [7] = assay: Curative antifungal activity against Botryotinia fuckeliana inoculated in strawberry fruit assessed as disease severity measuring lesion diameter at 300 ug AI/ml applied 48 hr post-inoculation; format: functional
Botrytis cinerea [8] = assay: Protective antifungal activity against Botryotinia fuckeliana inoculated in fungicide-applied strawberry fruit assessed as disease control efficacy at 300 ug AI/ml applied 48 hr prior inoculation relative to control; format: functional
Botrytis cinerea [9] = assay: Protective antifungal activity against Botryotinia fuckeliana inoculated in fungicide-applied strawberry fruit assessed as disease control efficacy at 300 ug AI/ml applied 24 hr prior inoculation relative to control; format: functional
Botrytis cinerea [10] = assay: Protective antifungal activity against Botryotinia fuckeliana inoculated in fungicide-applied strawberry fruit assessed as disease control efficacy at 300 ug AI/ml applied 96 hr prior-inoculation relative to control; format: functional
Botrytis cinerea [11] = assay: Protective antifungal activity against Botryotinia fuckeliana inoculated in fungicide-applied strawberry fruit assessed as disease severity measuring lesion diameter at 300 ug AI/ml applied 48 hr prior inoculation; format: functional
Botrytis cinerea [12] = assay: Curative antifungal activity against Botryotinia fuckeliana inoculated in strawberry fruit assessed as disease severity measuring lesion diameter at 300 ug AI/ml applied 24 hr post-inoculation; format: functional
Botrytis cinerea [13] = assay: Protective antifungal activity against Botryotinia fuckeliana inoculated in fungicide-applied strawberry fruit assessed as disease severity measuring lesion diameter at 300 ug AI/ml applied 24 hr prior inoculation; format: functional
Botrytis cinerea [14] = assay: Curative antifungal activity against Botryotinia fuckeliana inoculated in strawberry fruit assessed as disease severity measuring lesion diameter at 100 ug AI/ml applied 24 hr post-inoculation; format: functional
Botrytis cinerea [15] = assay: Curative antifungal activity against Botryotinia fuckeliana inoculated in strawberry fruit assessed as disease control efficacy at 100 ug AI/ml applied 48 hr post-inoculation relative to control; format: functional
Botrytis cinerea [16] = assay: Protective antifungal activity against Botryotinia fuckeliana inoculated in fungicide-applied strawberry fruit assessed as disease severity measuring lesion diameter at 100 ug AI/ml applied 96 hr prior-inoculation; format: functional
Botrytis cinerea [17] = assay: Protective antifungal activity against Botryotinia fuckeliana inoculated in fungicide-applied strawberry fruit assessed as disease severity measuring lesion diameter at 100 ug AI/ml applied 48 hr prior inoculation; format: functional
Botrytis cinerea [18] = assay: Curative antifungal activity against Botryotinia fuckeliana inoculated in strawberry fruit assessed as disease control efficacy at 100 ug AI/ml applied 96 hr post-inoculation relative to control; format: functional
Botrytis cinerea [19] = assay: Protective antifungal activity against Botryotinia fuckeliana inoculated in fungicide-applied strawberry fruit assessed as disease control efficacy at 100 ug AI/ml applied 48 hr prior inoculation relative to control; format: functional
Botrytis cinerea [20] = assay: Curative antifungal activity against Botryotinia fuckeliana inoculated in strawberry fruit assessed as disease control efficacy at 100 ug AI/ml applied 24 hr post-inoculation relative to control; format: functional
Botrytis cinerea [21] = assay: Protective antifungal activity against Botryotinia fuckeliana inoculated in fungicide-applied strawberry fruit assessed as disease severity measuring lesion diameter at 100 ug AI/ml applied 24 hr prior inoculation; format: functional
Botrytis cinerea [22] = assay: Curative antifungal activity against Botryotinia fuckeliana inoculated in strawberry fruit assessed as disease severity measuring lesion diameter at 100 ug AI/ml applied 96 hr post-inoculation; format: functional
Botrytis cinerea [23] = assay: Curative antifungal activity against Botryotinia fuckeliana inoculated in strawberry fruit assessed as disease severity measuring lesion diameter at 100 ug AI/ml applied 48 hr post-inoculation; format: functional
Botrytis cinerea [24] = assay: Protective antifungal activity against Botryotinia fuckeliana inoculated in fungicide-applied strawberry fruit assessed as disease control efficacy at 100 ug AI/ml applied 96 hr prior-inoculation relative to control; format: functional
Botrytis cinerea [25] = assay: Protective antifungal activity against Botryotinia fuckeliana inoculated in fungicide-applied strawberry fruit assessed as disease control efficacy at 100 ug AI/ml applied 24 hr prior inoculation relative to control; format: functional

COC(=O)N(OC)c1ccccc1COc1ccn(-c2ccc(Cl)cc2)n1 [PYRACLOSTROBIN]
EC50 (Botrytis cinerea [1]): 0.01 µg/mL (≈ 0.0258 µM)

N#Cc1c[nH]cc1-c1cccc2c1OC(F)(F)O2 [FLUDIOXONIL]
EC50 (Botrytis cinerea [1]): 0.003 µg/mL (≈ 0.0121 µM)

O=C(Nc1ccccc1-c1ccc(Cl)cc1)c1cccnc1Cl [BOSCALID]
Efficacy (Botrytis cinerea [2]): 74.7% | Activity (Botrytis cinerea [3]): 3.4 mm | Efficacy (Botrytis cinerea [4]): 29.8% | Efficacy (Botrytis cinerea [5]): 94.1% | Activity (Botrytis cinerea [6]): 13.2 mm | Activity (Botrytis cinerea [7]): 1.1 mm | Efficacy (Botrytis cinerea [8]): 84% | Efficacy (Botrytis cinerea [9]): 91.7% | Efficacy (Botrytis cinerea [10]): 81.8% | Activity (Botrytis cinerea [11]): 3 mm | Activity (Botrytis cinerea [12]): 4.7 mm | EC50 (Botrytis cinerea [1]): 0.09 µg/mL (≈ 0.262 µM) | Activity (Botrytis cinerea [13]): 1.5 mm

COC(=O)Nc1nc2ccccc2[nH]1 [CARBENDAZIM]
EC50 (Botrytis cinerea [1]): 0.05 µg/mL (≈ 0.262 µM)

CC(C)NC(=O)N1CC(=O)N(c2cc(Cl)cc(Cl)c2)C1=O [IPRODIONE]
EC50 (Botrytis cinerea [1]): 0.25 µg/mL (≈ 0.757 µM)

CC1(C(=O)Nc2ccc(O)c(Cl)c2Cl)CCCCC1 [FENHEXAMID]
Activity (Botrytis cinerea [14]): 7.2 mm | Efficacy (Botrytis cinerea [15]): 89.2% | Activity (Botrytis cinerea [16]): 1 mm | Activity (Botrytis cinerea [17]): 0.4 mm | Efficacy (Botrytis cinerea [18]): 23.2% | Efficacy (Botrytis cinerea [19]): 97.6% | Efficacy (Botrytis cinerea [20]): 61.4% | Activity (Botrytis cinerea [21]): 0.1 mm | Activity (Botrytis cinerea [22]): 14.5 mm | Activity (Botrytis cinerea [23]): 2 mm | EC50 (Botrytis cinerea [1]): 0.04 µg/mL (≈ 0.132 µM) | Efficacy (Botrytis cinerea [24]): 94.4% | Efficacy (Botrytis cinerea [25]): 99.2%

Cc1cc(C2CC2)nc(Nc2ccccc2)n1 [CYPRODINIL]
EC50 (Botrytis cinerea [1]): 0.007 µg/mL (≈ 0.0311 µM)
